For five compounds, concentration and Levels in liver results are on record in PMC10445290, “Enantiomeric Fractions Reveal Differences in the Atropselective Disposition of 2,2′,3,5′,6-Pentachlorobiphenyl (PCB 95) in Wildtype, Cyp2abfgs-Null, and CYP2A6-Humanized Mice” (Chemical Research in Toxicology, 2023).

This data set can be described thus: Levels of PCB 95 and its hydroxylated metabolites in adipose, blood, brain and liver 24 h after a single oral dose (GC-MS/MS). The following applies: 1 mg/kg, single oral PCB 95 1.0 mg/kg, mean ± SD; for concentration at 24 h: mouse, po. Format: in vivo, mice. As for the experimental part:
Adult male and female wild-type (WT) C57BL/6 mice, KO, and KI mice (4 months old) were exposed to racemic PCB 95. Mice were randomly assigned to exposure groups and received a single oral dose of PCB 95 (1.0 mg/kg) in stripped corn oil (10 mL/kg; lot# A0395699; cat# 801-03-7; Fisher Scientific) via gavage (5–7 mice per group). Control animals received corn oil alone (1–3 mice per group) to assess the potential background contamination with PCB 95. Animals were euthanized 24 h after PCB 95 exposure. Blood was collected from the heart and placed in pre-weighed glass vials with 80 μL of ethylenediaminetetraacetic acid solution (EDTA, 7.5%, w/w). The amount of blood in each vial was determined by weight prior to sample extraction. Adipose, brain, and liver tissues were excised from each animal and individually wrapped in aluminum foil. Samples were stored at −80 °C in separate plastic bags and shipped on dry ice to the University of Iowa for analysis.
PCB 95 and its hydroxylated metabolites were extracted from adipose (0.06 ± 0.01 g), brain (0.19 ± 0.03 g) and liver tissues (0.49 ± 0.07 g) by pressurized liquid extraction (PLE) with a Dionex ASE200 system (Dionex, Sunnyvale, CA, USA).[45] Tissues were homogenized with 2 g of pre-cleaned diatomaceous earth (Thermo Fisher Scientific, Pittsburgh, PA, USA) and placed in extraction cells loaded with 10 g of pre-extracted Florisil (60–100 mesh, Fisher Scientific, Pittsburgh, PA, USA). Tissue samples were then spiked with recovery standards [50 ng of PCB 117 in 50 μL of isooctane and 50 ng of 4′-159 (2′,3,3′,5,5′,6′-hexachlorobiphenyl-4-ol) in 50 μL of methanol]. For ongoing precision recovery (OPR) samples; recovery standard, internal standard, PCB 95, and its metabolites (50 ng each) were spiked to the method blank (DE only) and tissues from control animals. Cells were extracted with hexane–dichloromethane–methanol (48:43:9, v/v/v) at 100 °C and 1500 psi (10 MPa), with preheat equilibration for 6 min, 60% of cell flush volume, and 1 static cycle of 5 min. The extracts were concentrated to approximately 1 mL with a TurboVap II (Biotage, LLC, NC, USA) and transferred to new glass tubes with 1 mL of hexane. The solvent was evaporated to near dryness under a gentle stream of nitrogen, and extracts were redissolved in 1 mL of hexane.
PCB 95 and its hydroxylated metabolites were extracted from whole blood (0.45 ± 0.13 g) using a published liquid–liquid extraction procedure.[29] Briefly, blood samples were thawed, and 3 mL of aqueous 1% KCl solution was added to each sample. Recovery standards (50 ng of PCB 117 in 50 μL of isooctane and 50 ng of 4′-159 in 50 μL of methanol) were spiked to all samples, including OPR samples, before extraction. Subsequently, 1 mL of 6 M HCl, 5 mL of 2-propanol, and 5 mL of 1:1 hexane–MTBE mixture (v/v) were added to the blood samples. The samples were inverted for 5 min and centrifuged at 1690g for 5 min to facilitate the phase separation. Next, the organic phases were transferred to new glass tubes, and the aqueous phases were re-extracted with 3 mL of hexane. Next, three mL of aqueous 1% KCl were added to the combined organic extracts, and samples were inverted and centrifuged as described above. The organic phase was transferred to a new tube, and the aqueous phase was re-extracted with 3 mL of hexane. The combined organic extracts were evaporated to near dryness using a Savant SpeedVac SPD210 (Thermo Scientific, Waltham, MA, US), and each sample was reconstituted with 0.5 mL of hexane.
Five drops of methanol and 0.5 mL of diazomethane (CH2N2; about 0.1 mmol) in diethyl ether were added to the tissue or blood extracts to derivatize the OH-PCBs.[45] Diazomethane rapidly converts the phenolic hydroxyl groups of OH-PCBs to methoxy groups (i.e., −OH → −OCH3). All samples were stored at 4 °C for approximately 16 h. Excess diazomethane evaporated under a gentle stream of nitrogen in a fume hood, followed by adding 0.5 mL of hexane. […]

[1] abbreviates: female, C57BL/6 (wild-type), adipose, FWT, female wildtype mice, read-out: Levels in adipose.
Setting [2] is: female, C57BL/6 (wild-type), liver, FWT, female wildtype mice, read-out: Levels in liver.
Setting [3] is: female, C57BL/6 (wild-type), whole blood, FWT, female wildtype mice, read-out: Levels in blood.
[4] abbreviates: female, CYP2A6-humanized (KI), liver, FKI, female CYP2A6-humanized mice, read-out: Levels in liver.
Setting [5] is: female, CYP2A6-humanized (KI), whole blood, FKI, female CYP2A6-humanized mice, read-out: Levels in blood.
Setting [6] is: female, Cyp2abfgs-null (KO), liver, FKO, female Cyp2abfgs-null mice, read-out: Levels in liver.
[7] abbreviates: female, Cyp2abfgs-null (KO), whole blood, FKO, female Cyp2abfgs-null mice, read-out: Levels in blood.
The mark [8] stands for this setting: male, C57BL/6 (wild-type), liver, MWT, male wildtype mice, read-out: Levels in liver.
[9] abbreviates: male, C57BL/6 (wild-type), whole blood, MWT, male wildtype mice, read-out: Levels in blood.
The mark [10] stands for this setting: male, CYP2A6-humanized (KI), liver, MKI, male CYP2A6-humanized mice, read-out: Levels in liver.
Setting [11] is: male, CYP2A6-humanized (KI), whole blood, MKI, male CYP2A6-humanized mice, read-out: Levels in blood.
The mark [12] stands for this setting: male, Cyp2abfgs-null (KO), adipose, MKO, male Cyp2abfgs-null mice, read-out: Levels in adipose.
The mark [13] stands for this setting: male, Cyp2abfgs-null (KO), liver, MKO, male Cyp2abfgs-null mice, read-out: Levels in liver.
Where [14] appears, read: male, Cyp2abfgs-null (KO), whole blood, MKO, male Cyp2abfgs-null mice, read-out: Levels in blood.
Setting [15] is: female, C57BL/6 (wild-type), brain, FWT, female wildtype mice, read-out: Levels in brain.
[16] abbreviates: female, CYP2A6-humanized (KI), adipose, FKI, female CYP2A6-humanized mice, read-out: Levels in adipose.
The mark [17] stands for this setting: female, Cyp2abfgs-null (KO), adipose, FKO, female Cyp2abfgs-null mice, read-out: Levels in adipose.
The mark [18] stands for this setting: male, C57BL/6 (wild-type), adipose, MWT, male wildtype mice, read-out: Levels in adipose.
Setting [19] is: male, CYP2A6-humanized (KI), adipose, MKI, male CYP2A6-humanized mice, read-out: Levels in adipose.

Each structure is given as a SMILES string. Read-outs that look alike come from different tables or passages of the source.

For `Oc1c(Cl)cc(Cl)c(-c2cc(Cl)ccc2Cl)c1Cl` [3-103, 2,2',4,5',6-pentachlorobiphenyl-3-ol], the concentration at 24 h by setting is: under setting [1], 0.7 ng/g; under setting [2], 1.2 ± 0.4 ng/g; under setting [3], 1 ± 0.5 ng/g; under setting [4], 1 ± 0.4 ng/g; under setting [5], 1.1 ± 1.2 ng/g; under setting [6], 1.8 ± 0.4 ng/g. Also, the concentration at 24 h turned out to be 0.8 ± 0.3 ng/g under setting [7]; 0.7 ± 0.3 ng/g under setting [8]; 0.6 ± 0.2 ng/g under setting [9]; 0.6 ± 0.2 ng/g under setting [10]; 0.4 ± 0.1 ng/g under setting [11]; 1.5 ± 0.7 ng/g under setting [12]. Further, the concentration at 24 h turned out to be 1 ± 0.4 ng/g under setting [13] and 0.5 ± 0.1 ng/g under setting [14].
In the case of `Oc1cc(Cl)c(-c2c(Cl)ccc(Cl)c2Cl)cc1Cl` [4'-95], where the note is “FKO, female Cyp2abfgs-null mice”, the Levels in liver was 8.5 ng/g tissue. For the same compound, the concentration at 24 h reads like this: under setting [1], 1.4 ± 0.6 ng/g; under setting [15], 0.3 ng/g; under setting [2], 3.7 ± 1.8 ng/g; under setting [3], 2.2 ± 1 ng/g; under setting [16], 1.1 ± 0.3 ng/g; under setting [4], 4.5 ± 2.6 ng/g. In addition, the concentration at 24 h runs as follows: under setting [5], 3.4 ± 2.5 ng/g; under setting [17], 1.5 ± 0.4 ng/g; under setting [6], 8.5 ± 3.9 ng/g; under setting [7], 2.2 ± 1.2 ng/g; under setting [18], 2.1 ± 0.8 ng/g; under setting [8], 5.7 ± 2.8 ng/g. For the same compound, the concentration at 24 h reads like this: under setting [9], 3.5 ± 1.1 ng/g; under setting [19], 1.1 ± 0.2 ng/g; under setting [10], 3.8 ± 2.1 ng/g; under setting [11], 1.3 ± 0.7 ng/g; under setting [12], 2.5 ± 1.7 ng/g; (male, Cyp2abfgs-null (KO), brain, MKO, male Cyp2abfgs-null mice, read-out: Levels in brain) 0.2 ng/g. In addition, the concentration at 24 h reads like this: under setting [13], 7.7 ± 3.6 ng/g; under setting [14], 2.8 ± 0.9 ng/g.
With `Oc1c(O)c(Cl)c(-c2cc(Cl)ccc2Cl)c(Cl)c1Cl` [4,5-95, 2,2',3,5',6-pentachlorobiphenyl-4,5-diol], the concentration at 24 h runs as follows: under setting [1], 0.9 ± 0.2 ng/g; under setting [2], 2.2 ± 0.9 ng/g; under setting [3], 5.2 ± 1.9 ng/g; under setting [16], 1 ± 0.6 ng/g; under setting [4], 1.7 ± 0.3 ng/g; under setting [5], 5.2 ± 4.8 ng/g. Besides, the concentration at 24 h was 1.6 ng/g under setting [17]; 1.2 ± 0.7 ng/g under setting [6]; 1.4 ± 0.7 ng/g under setting [7]; 0.9 ± 0.2 ng/g under setting [18]; 3.4 ± 1.2 ng/g under setting [8]; 9.1 ± 2.6 ng/g under setting [9]. Also, the concentration at 24 h reads like this: under setting [19], 0.7 ± 0.2 ng/g; under setting [10], 1.7 ± 0.8 ng/g; under setting [11], 3.6 ± 1.3 ng/g; under setting [12], 1.9 ± 0.8 ng/g; under setting [13], 2.8 ± 1.6 ng/g; under setting [14], 5.3 ± 3.8 ng/g.
As to `Oc1cc(Cl)c(-c2cc(Cl)ccc2Cl)c(Cl)c1Cl` [4-95, 2,2',3,5',6-pentachlorobiphenyl-4-ol], under “FKI, female CYP2A6-humanized mice”, the Levels in liver is listed as 0.4 ng/g tissue. For the same compound, the concentration at 24 h under setting [1] worked out at 0.4 ± 0.1 ng/g; the concentration at 24 h under setting [2] was found to be 1 ± 0.6 ng/g; the concentration at 24 h under setting [3] turned out to be 1.5 ± 0.5 ng/g; the concentration at 24 h under setting [4] came to 0.4 ± 0.1 ng/g; the concentration at 24 h under setting [5] is 1 ± 0.8 ng/g; the concentration at 24 h under setting [6] is 0.4 ± 0.3 ng/g. The concentration at 24 h runs as follows: under setting [7], 0.4 ± 0.3 ng/g; under setting [18], 0.5 ± 0.3 ng/g; under setting [8], 2 ± 0.8 ng/g; under setting [9], 3.2 ± 1.1 ng/g; under setting [19], 0.3 ng/g; under setting [10], 0.8 ± 0.5 ng/g. The concentration at 24 h reads like this: under setting [11], 1.1 ± 0.6 ng/g; under setting [12], 0.4 ± 0.1 ng/g; under setting [13], 1.1 ± 0.9 ng/g; under setting [14], 1.5 ± 0.8 ng/g.
In the case of `Oc1cc(Cl)c(Cl)c(-c2cc(Cl)ccc2Cl)c1Cl` [5-95, 2,2',3,5',6-pentachlorobiphenyl-5-ol], the concentration at 24 h under setting [1] was found to be 1.3 ± 1.1 ng/g; the concentration at 24 h under setting [15] came out at 0.25 ± 0.02 ng/g; the concentration at 24 h under setting [2] is 3.8 ± 1.6 ng/g; the concentration at 24 h under setting [3] stood at 0.9 ± 0.6 ng/g; the concentration at 24 h under setting [16] stood at 1.1 ± 0.4 ng/g; the concentration at 24 h under setting [4] came out at 5.5 ± 3.1 ng/g. Besides, the concentration at 24 h was 1.9 ± 1.6 ng/g under setting [5]; 1 ± 0.4 ng/g under setting [17]; 6.2 ± 1.1 ng/g under setting [6]; 0.7 ± 0.3 ng/g under setting [7]; 1.8 ± 1 ng/g under setting [18]; 3.3 ± 1.6 ng/g under setting [8]. Further, the concentration at 24 h was 1.1 ± 0.3 ng/g under setting [9]; 0.8 ± 0.5 ng/g under setting [19]; 3.3 ± 2.1 ng/g under setting [10]; 0.6 ± 0.3 ng/g under setting [11]; 3.5 ± 4.8 ng/g under setting [12]; 3.7 ± 1.6 ng/g under setting [13]. Further, the concentration at 24 h under setting [14] was determined as 0.7 ± 0.3 ng/g.
